# According to patent US9074300B2 (priority 2001, dated 2015):
# Columns and labels:
# [1] = target: T1, GST (Schistosoma japonicum, UniProt P08515); settings: bound complex with GST
# [2] = target: T2, GST (Rattus norvegicus, UniProt P08010); settings: read-out: affinity of binding to GST; cited from earlier work
# [3] = target: T2, GST; settings: corresponds to affinity of 100 μM
# From the text: For example, glutathione-S-transferase (GST) is an enzyme which is commonly used as an affinity handle for the purification of recombinant proteins. The target protein is expressed and purified as a GST fusion and may then be treated with a protease to remove the GST domain (Smith and Johnson, 1988).
# [4] = target: cutinase (Fusarium vanettenii, UniProt P00590); assay type: biochemical, Fusarium solani pisi; settings: read-out: Michaelis constant (KM)
# Protocol: The release of PNP was followed using absorbance spectroscopy.
# Spectrophotometric measurement was performed at room temperature using BECKMAN DU-640 spectrophotometer (BECKMAN COULTER, INC., Fullerton, Calif.).
# [5] = target: T1, GST; assay: SPR immobilization of GST to self-assembled monolayer; assay type: binding; settings: monolayer from 1:99 mixture of alkanethiol 13 and penta(ethylene glycol) alkanethiol; GST 100 μM, PBS pH 7.4
# T2 sequence (P08010 2-218 limits assumed): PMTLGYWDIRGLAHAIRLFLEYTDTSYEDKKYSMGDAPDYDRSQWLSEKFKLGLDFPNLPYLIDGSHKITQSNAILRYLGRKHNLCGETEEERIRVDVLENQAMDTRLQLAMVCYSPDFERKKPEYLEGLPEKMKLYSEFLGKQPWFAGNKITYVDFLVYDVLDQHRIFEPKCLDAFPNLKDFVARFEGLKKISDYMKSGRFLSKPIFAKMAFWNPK
# T1 sequence (P08515 2-218 limits assumed): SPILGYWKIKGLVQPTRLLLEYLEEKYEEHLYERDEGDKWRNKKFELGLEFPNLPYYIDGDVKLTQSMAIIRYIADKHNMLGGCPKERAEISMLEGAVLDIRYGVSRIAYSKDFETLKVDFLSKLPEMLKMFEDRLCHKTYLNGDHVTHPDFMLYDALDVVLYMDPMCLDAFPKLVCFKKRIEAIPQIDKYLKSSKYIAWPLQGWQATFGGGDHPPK
# Chain of cutinase (P00590 17-230): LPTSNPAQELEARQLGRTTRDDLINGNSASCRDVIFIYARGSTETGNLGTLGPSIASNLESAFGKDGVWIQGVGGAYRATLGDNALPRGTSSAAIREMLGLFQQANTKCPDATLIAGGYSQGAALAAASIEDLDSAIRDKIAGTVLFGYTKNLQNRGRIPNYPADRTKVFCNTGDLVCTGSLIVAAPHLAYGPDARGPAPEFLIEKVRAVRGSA
compound,measurement,setting,value
Glutathione-dichtoroquinone conjugate [formula (6)],first-order rate constant of irreversible cross-linking reaction,[1],0.11 ± 0.03 min⁻¹
N[C@@H](CCC(=O)N[C@@H](CS)C(=O)NCC(=O)O)C(=O)O [glutathione],Kd,[2],~100 µM
same,lifetime of the bound complex,[3],about one
CCCC(=O)Oc1ccc([N+](=O)[O-])cc1 [4-nitrophenyl butyrate],Km,[4],1000 µM
Hydroquinone-glutathione-EG5-alkanethiol [compound 13],binding of GST to monolayer,[5],this binding was irreversible
